From patent publication US11401253B2, “16-methyl-oxacyclohexadecan-2-one and 16-methyl-azacyclohexadecan-2-one derivatives as antimicrobial agents” (THE UNIVERSITY OF MONTANA, priority 2017, dated 2022)
In brackets after ≈: the same amount, converted by molar mass. Several values for one entry are separate records, joined by “and”; a condition that tells them apart may be missing. Equal values may be shown once.

What was measured:
C. albicans = experiment: Antibiotic testing (MIC), C. albicans; type: cell-based; conditions: Candida albicans; growth inhibition ≥90%; read-out: minimum inhibitory concentration, C. albicans
[1] = system: Staphylococcus aureus (13709); experiment: Antibiotic testing (MIC), S. aureus 13709; type: cell-based; conditions: growth inhibition ≥90% relative to drug-free controls, read-out: minimum inhibitory concentration, Staphylococcus aureus (13709)
Candida glabrata = experiment: Antibiotic testing (MIC), Candida glabrata; type: cell-based; conditions: Nakaseomyces glabratus; growth inhibition ≥90%; read-out: minimum inhibitory concentration, Candida glabrata
MMP-3 = biological target: T1, MMP-3 (Homo sapiens, UniProt P08254); experiment: MMP-3 enzyme inhibition assay; type: biochemical
T1 construct: purchased BioMol
Protocol: The two fungi were also co-cultured under controlled conditions. P. fuscum was grown in pure culture in potato dextrose broth (10×400 mL). After 24 h, an agar cube (8 mm^3) impregnated with P. camembertii/clavigerum mycelium was added to each flask and the resulting co-culture was shaken for 6 more days (200 rpm, room temperature). At time of harvest, methanol (50 mL/flask) was added, the mycelia were removed by gravity filtration and the broth was extracted with chloroform (3×2 L). The chloroform was removed in vacuo to yield 663 mg of crude extract. The crude extract was verified to be active in the MMP-3, caspase-1 and caspase-3 enzyme inhibition assays. Enzyme inhibitory activity was determined using specific BioMol enzyme inhibition assay kits for drug discovery as described in Stierle, A; Stierle, D. The Berkeleylactones, Antibiotic Macrolides from Fungal Coculture. J. Nat. Prod. 80, 4, 1150-1160.

B. anthracis = experiment: microbe, parasite or virus in culture; type: cell-based; conditions: Bacillus anthracis, read-out: minimum inhibitory concentration, B. anthracis
Bacillus subtilis = experiment: Antibiotic testing (MIC), Bacillus subtilis; type: cell-based; conditions: growth inhibition ≥90%, read-out: minimum inhibitory concentration, Bacillus subtilis
HepG2 = experiment: Cytotoxicity (MTS), HepG2 cells; type: cell-based; conditions: Homo sapiens, 72 hours exposure
[2] = system: Mycobacterium tuberculosis; experiment: microbe, parasite or virus in culture; conditions: read-out: MIC, MABA
Streptococcus pyogenes = experiment: Antibiotic testing (MIC), Streptococcus pyogenes; type: cell-based; conditions: growth inhibition ≥90%, read-out: minimum inhibitory concentration, Streptococcus pyogenes
S. aureus CAIRD148 = experiment: Antibiotic testing, methicillin-resistant S. aureus CAIRD148; type: cell-based; conditions: methicillin-resistant strain; for MIC: Staphylococcus aureus, CAIRD148
Description: (§1) Both the methyl ester and the diacetate derivatives of BPL 76 slightly less but still very strong activity against the same four MRSA strains (Table 11). The activities of compounds BPL 76 and BPL 81 were compared to several known antibiotics against three methicillin-resistant strains of S. aureus [FIG. 6, comparative data provided by Hartford Hospital, Center for Anti-Infective Research and Development (CAIRD)].

K. pneumoniae (10031) = experiment: Antibiotic testing (MIC), gram negative K. pneumoniae; type: cell-based; conditions: Klebsiella pneumoniae; read-out: MIC, K. pneumoniae (10031)
Protocol: (§2) None of this collection of compounds were active against Gram-negative bacteria
(§3) Additionally, BPL 76 and derivatives were tested against a panel of gram negative bacteria including K. pneumonia, P. aeruginosa and E. coli (Table 12).

S. aureus (NE277) = experiment: Antibiotic testing, methicillin-resistant S. aureus NE277; type: cell-based; conditions: for MIC: Staphylococcus aureus, read-out: antibiotic testing data (MIC), S. aureus (NE277)
Description: as §1

Vero cell = experiment: Cytotoxicity (MTS), Vero cells; type: cell-based, monkey; conditions: Primates, 72 hours exposure
S. aureus CAIRD142 = experiment: Antibiotic testing, methicillin-resistant S. aureus CAIRD142; type: cell-based; conditions: methicillin-resistant strain; for MIC: Staphylococcus aureus, CAIRD142
Description: as §1

S. aureus CAIRD116 = experiment: Antibiotic testing, methicillin-resistant S. aureus CAIRD116; type: cell-based; conditions: methicillin-resistant strain; for MIC: Staphylococcus aureus, CAIRD116
Description: as §1

E. coli (25922) = experiment: Antibiotic testing (MIC), gram negative E. coli; type: cell-based; conditions: Escherichia coli; read-out: MIC, E. coli (25922)
Protocol: as §2, §3

P. aeruginosa = experiment: Antibiotic testing (MIC), gram negative P. aeruginosa; type: cell-based; conditions: Pseudomonas aeruginosa; read-out: MIC, P. aeruginosa
Protocol: as §2, §3

[3] = system: Mycobacterium tuberculosis; conditions: MABA
J774 = experiment: Cytotoxicity (MTS), J774 cells; type: cell-based, murine; conditions: Mus musculus, 72 hours exposure
[4] = system: non-replicating persistence Mycobacterium tuberculosis (NRP-TB); experiment: Low oxygen recovery assay (LORA), non-replicating persistence Mtb; type: cell-based; conditions: for MIC: Mycobacterium tuberculosis, non-replicating persistence, hypoxic conditions, read-out: MIC, LORA
GFP synthesis = experiment: Cell-free translation assay with GFP reporter; type: biochemical; conditions: 50 μM, 37° C., readings for 2 hr
Protocol: Further assessment of the effect of BPL76 on protein translation was done using a cell-free translation assay. The plasmid pY71-sfGFP^55 (5 ng) was translated in the PUREexpress in vitro protein synthesis system (New England Biolabs). The final concentrations of erythromycin, josamycin and tylosin in the translation reactions were 50 μM. The reactions were incubated at 37° C. and fluorescence readings (excitation: 488 nm, emission, 520 nm) were taken every 20 min for 2 hr.

Enterococcus faecalis = experiment: Antibiotic testing (MIC), Enterococcus faecalis; type: cell-based; conditions: growth inhibition ≥90%, read-out: minimum inhibitory concentration, Enterococcus faecalis

T1 sequence (P08254 100-477): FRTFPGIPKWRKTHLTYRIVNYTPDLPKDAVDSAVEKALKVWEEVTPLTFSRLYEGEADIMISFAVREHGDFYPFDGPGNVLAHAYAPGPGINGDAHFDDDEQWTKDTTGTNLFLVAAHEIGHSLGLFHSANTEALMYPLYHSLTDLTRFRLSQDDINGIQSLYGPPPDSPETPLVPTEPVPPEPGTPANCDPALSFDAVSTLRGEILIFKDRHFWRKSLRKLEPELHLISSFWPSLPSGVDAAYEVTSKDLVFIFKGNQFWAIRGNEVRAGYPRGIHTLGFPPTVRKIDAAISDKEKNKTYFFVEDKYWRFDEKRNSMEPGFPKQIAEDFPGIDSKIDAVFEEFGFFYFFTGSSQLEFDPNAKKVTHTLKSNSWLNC

| Compound | MIC (C. albicans) [µg/mL] | MIC [1] [µg/mL] | MIC (Candida glabrata) [µg/mL] | MIC (B. anthracis) [µg/mL] | MIC (Bacillus subtilis) [µg/mL] | IC50 (HepG2) [µg/mL] | MIC [2] [µg/mL] | MIC (Streptococcus pyogenes) [µg/mL] | MIC (S. aureus CAIRD148) [µg/mL] | MIC (K. pneumoniae (10031)) | MIC (S. aureus (NE277)) [µg/mL] | IC50 (Vero cell) [µg/mL] | MIC (S. aureus CAIRD142) [µg/mL] | MIC (S. aureus CAIRD116) [µg/mL] | MIC (E. coli (25922)) | MIC (P. aeruginosa) [µM] | IC50 (J774) [µg/mL] | MIC [4] [µg/mL] | inhibition of GFP synthesis and corresponding fluorescence (GFP synthesis) | MIC (Enterococcus faecalis) [µg/mL] | also measured |
| --- | --- | --- | --- | --- | --- | --- | --- | --- | --- | --- | --- | --- | --- | --- | --- | --- | --- | --- | --- | --- | --- |
| C[C@@H]1CCCCCCCCC[C@H](OC(=O)CCC(=O)O)[C@H](O)/C=C/C(=O)O1 [BPL 84, 4-(((5R,6S,16R,E)-5-hydroxy-16-methyl-2-oxooxacyclohexadec-3-en-6-yl)oxy)-4-oxobutanoic acid] | > 90 | 45 (≈ 117 µM) | > 90 | > 90 | > 90 | > 100 | > 100 | > 90 | > 90 | > 250 µM | > 90 | > 100 | > 90 | > 90 | > 250 µM | > 250 | > 100 | > 100 |  |  | MMP-3 inhibition (MMP-3): weaker inhibitors; antibiotic testing data (MIC), S. aureus CAIRD148 (S. aureus CAIRD148): >250 µM; antibiotic testing data (MIC), S. aureus (NE277) (S. aureus (NE277); methicillin-resistant strain): >250 µM; antibiotic testing data (MIC), S. aureus CAIRD142 (S. aureus CAIRD142): >250 µM; antibiotic testing data (MIC), S. aureus CAIRD116 (S. aureus CAIRD116): >250 µM; activity against replicating Mtb (in words) [3]: not active; activity against non-replicating Mtb (in words) ([4]; LORA): not active |
| CO[C@@H]1[C@@H](O[C@@H]2O[C@H](C)[C@@H](O[C@H]3C[C@@](C)(O)[C@@H](OC(=O)CC(C)C)[C@H](C)O3)[C@H](N(C)C)[C@H]2O)[C@@H](CC=O)C[C@@H](C)[C@@H](O)/C=C/C=C/C[C@@H](C)OC(=O)C[C@H]1OC(C)=O [josamycin] |  |  |  |  |  |  |  |  |  |  |  |  |  |  |  |  |  |  | effectively inhibited |  |  |
| CC[C@H]1OC(=O)C[C@@H](O)[C@H](C)[C@@H](O[C@@H]2O[C@H](C)[C@@H](O[C@H]3C[C@@](C)(O)[C@@H](O)[C@H](C)O3)[C@H](N(C)C)[C@H]2O)[C@@H](CC=O)C[C@@H](C)C(=O)/C=C/C(C)=C/[C@@H]1CO[C@@H]1O[C@H](C)[C@@H](O)[C@@H](OC)[C@H]1OC [tylosin] |  |  |  |  |  |  |  |  |  |  |  |  |  |  |  |  |  |  | effectively inhibited |  |  |
| COC(=O)[C@H](O)CS[C@@H]1CC(=O)[C@@H](O)CCCCCCCCC[C@@H](C)OC1=O [BPL 76-Me ester, methyl (S)-2-hydroxy-3-(((3R,6S,16R)-6-hydroxy-16-methyl-2,5-dioxooxacyclohexadecan-3-yl)thio)propanoate] | 13 (≈ 31.1 µM) | 1 (≈ 2.39 µM) | 7 (≈ 16.7 µM) | 1 (≈ 2.39 µM) | 3 (≈ 7.17 µM) | 55.6 (≈ 133 µM) | 32 (≈ 76.5 µM) | 3 (≈ 7.17 µM) | 2 (≈ 4.78 µM) | 250 µM and 105 µg/mL | 2 (≈ 4.78 µM) | 74 (≈ 177 µM) | 2 (≈ 4.78 µM) | 2 (≈ 4.78 µM) | 125 µM and 52.3 µg/mL | > 250 | 38 (≈ 90.8 µM) | 19 (≈ 45.4 µM) |  | 3 (≈ 7.17 µM) |  |
| CC[C@H]1OC(=O)[C@H](C)[C@@H](O[C@H]2C[C@@](C)(OC)[C@@H](O)[C@H](C)O2)[C@H](C)[C@@H](O[C@@H]2O[C@H](C)C[C@H](N(C)C)[C@H]2O)[C@](C)(O)C[C@@H](C)C(=O)[C@H](C)[C@@H](O)[C@]1(C)O [erythromycin] |  |  |  |  |  |  |  |  |  |  |  |  |  |  |  |  |  |  | effectively inhibited |  |  |
| COC(=O)[C@@H](CS[C@@H]1CC(=O)[C@@H](OC(C)=O)CCCCCCCCC[C@@H](C)OC1=O)OC(C)=O [BPL 76-diacetate, methyl (S)-2-acetoxy-3-(((3R,6S,16R)-6-acetoxy-16-methyl-2,5-dioxooxacyclohexadecan-3-yl)thio)propanoate] | > 125 | 2 (≈ 3.98 µM) | > 125 | 4 (≈ 7.96 µM) | 7 (≈ 13.9 µM) |  |  | 15 (≈ 29.8 µM) | 4 (≈ 7.96 µM) | > 125 µM | 4 (≈ 7.96 µM) |  | 7 (≈ 13.9 µM) | 4 (≈ 7.96 µM) | > 125 µM | > 125 |  |  |  | 15 (≈ 29.8 µM) |  |
| C[C@@H]1CCCCCCCCC[C@H](OC(=O)CCC(=O)O)C(=O)C[C@@H](SC[C@@H](O)C(=O)O)C(=O)O1 [BPL 88, 4-(((3R,6S,16R)-3-(((S)-2-carboxy-2-hydroxyethyl)thio)-16-methyl-2,5-dioxooxacyclohexadecan-6-yl)oxy)-4-oxobutanoic acid] | > 119 | 4 (≈ 7.93 µM) | 31 (≈ 61.4 µM) | 8 (≈ 15.9 µM) | 31 (≈ 61.4 µM) | > 100 | > 100 | 119 (≈ 236 µM) | 8 (≈ 15.9 µM) | > 250 µM | 8 (≈ 15.9 µM) | > 100 | 15 (≈ 29.7 µM) | 15 (≈ 29.7 µM) | > 250 µM | > 250 | 42.5 (≈ 84.3 µM) | 46 (≈ 91.2 µM) |  | 31 (≈ 61.4 µM) | MMP-3 inhibition (MMP-3): weaker inhibitors |
